According to patent US20260132123A1, “ABAD INHIBITOR COMPOUNDS” (UNIVERSITY COURT OF THE UNIVERSITY OF ST ANDREWS, priority 2021, published 2026):

Key:
[1] = test system: mtsABAD HEK293 cells; experiment: Lactate dehydrogenase (LDH) cytotoxicity assay; format: cell-based, human; conditions: 50 μM compound
Method: Cell cytotoxicity was assessed via the measurement of lactate dehydrogenase leakage into the culture medium using a commercially available kit from Pierce (Thermo Scientific cat no. 88953). This was carried out in accordance with the kit guidelines, with the activity of Lactate Dehydrogenase (LDH) being calculated from the change in absorbance at […] as NADH is reduced. HEK293 cells overexpressing mts17β-HSD10 were cultured in phenol-red free media (10% fetal bovine serum (FBS), 1 mM sodium pyruvate, 100 units penicillin, 0.1 mg/mL streptomycin and 2 mM L-glutamine) and seeded at a density of 10,000 cells per well (100 μL, 96 well plates). […] Treated cells were incubated at 37° C. and CO2 (5%) for 24 hours before the LDH assay was performed as per the manufacturer's instructions. Spontaneous control (water) and maximum control (lysis buffer) used in accordance with the kit guide. Absorbance was measured at 490 nm and 680 nm using a SpectraMaxM2e spectrophotometer. The measured LDH activity was used to calculate % cytotoxicity using the following equation: […]

[2] = target: T1, 17β-HSD10 (Homo sapiens, UniProt Q99714); experiment: 17β-HSD10 (ABAD) enzyme inhibition assay, NADH oxidation read at 340 nm (primary screen and dose response); format: biochemical; conditions: for EC50 / Max. Effect (%) / Hill Slope / Max. Fit / Min. Fit: recombinant 17βHSD10 enzyme assay; for Hill Slope / Max. Fit / Min. Fit: curve fit
T1 construct: Histev (histidine tag with TEV site) (N, cleaved yes); made in house; host or cells: E. coli BL21-CodonPlus
T1 sequence (Q99714 1-261): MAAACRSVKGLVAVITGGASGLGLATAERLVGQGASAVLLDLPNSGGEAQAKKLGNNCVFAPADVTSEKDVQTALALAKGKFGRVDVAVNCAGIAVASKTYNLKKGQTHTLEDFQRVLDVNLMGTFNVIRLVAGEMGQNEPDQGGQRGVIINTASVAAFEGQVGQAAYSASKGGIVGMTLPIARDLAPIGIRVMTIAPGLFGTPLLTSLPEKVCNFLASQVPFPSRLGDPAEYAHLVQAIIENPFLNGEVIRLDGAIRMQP
Method in brief: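 Screening used a 35 min room-temperature endpoint A340 read after compound (10 μM) and enzyme (2.5 nM, E. coli-expressed, His-tag removed) preincubated 15 min, then 100 μM NADH plus acetoacetyl-CoA added. Dose-response runs tracked absorbance kinetically 45 min; buffer pH 7.4 Tris with BSA, DTT.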

[3] = test system: mtsABAD HEK293 cells; experiment: Alamar Blue cell viability assay; format: cell-based, human; conditions: 50 μM compound
Method: Cell viability was assessed via fluorescence change using the commercially available Alamar Blue from ThermoFisher. HEK293 cells overexpressing mts17β-HSD10 were cultured in phenol-red free media (10% FBS, 1 mM sodium pyruvate, 100 units penicillin, 0.1 mg/mL streptomycin and 2 mM L-glutamine) and seeded at a density of 10,000 cells per well (100 μL, 96 well plates). […] Treated cells were then incubated at 37° C. and CO2 (5%) for 24 hours before the assay was performed as per the manufacturer's instructions. Fluorescence was measured at 530 nm excitation and 590 nm emission using a SpectraMaxM2e spectrophotometer.

Row | SMILES | LDH % Toxicity (50 μM Dose) [1] [%] | EC50 [2] [µM] | Max. Effect (%) [2] [%] | Hill Slope [2] | Max. Fit [2] | Min. Fit [2] | Alamar Blue % Viability (50 μM Dose) [3] [%] | LDH % Toxicity (50 μM Dose) ([1]; listed as ESC1002205-01) [%] | Alamar Blue % Viability (50 μM Dose) ([3]; listed as ESC1002205-01) [%] | LDH % Toxicity (50 μM Dose) ([1]; listed as ESC1002203-01) [%] | 17β-HSD10 / ABAD activity in words (SAR discussion) [2] | fold less potent than ESC1002033 [2] | Alamar Blue % Viability (50 μM Dose) ([3]; listed as ESC1002203-01) [%]
1 | Cc1ccsc1C(=O)N1CCC[C@H]1c1ccccc1-c1ccc(Cl)c(C(F)(F)F)c1 [ESC1002327] | 4.61 | 1.45 | 89 | 0.84 | 100 | −7 | 90.36 |  |  |  |  |  | 
2 | CC(C)CN(C(=O)c1ccccc1F)c1cccc(N(C)Cc2cccnc2)c1 [ESC1002210] | 5.509 | 6.17 | 72 | 1.4 | 82 | 0 | 93.200 |  |  |  |  |  | 
3 | Cc1ccsc1C(=O)N1CCC[C@H]1c1ccccc1-c1ccc(C(=O)N(C)C)cc1 [ESC1002317] | 4.58 | 0.912 | 96 | 1 | 99 | 0 | 83.39 |  |  |  |  |  | 
4 | CC(C)OCCN(C(=O)c1ccccc1F)c1cccc(N(C)Cc2c[nH]cn2)c1 [ESC1002267] | 4.81 | 6.03 | 76 | 0.9 | 103 | −4 | 89.57 |  |  |  |  |  | 
5 | CCN(C(=O)c1ccccc1F)c1cccc(N(C)Cc2cnc[nH]2)c1 [ESC1002234, N-ethyl-2-fluoro-N-[3-[1H-imidazol-5-ylmethyl(methyl)amino]phenyl]benzamide] | 4.81 | 1.48 | 94 | 0.96 | 101 | −3 | 86.98 |  |  |  |  |  | 
6 | COCCN(C(=O)c1ccccc1F)c1cccc(N(C)Cc2cn(CCOC)cn2)c1 [ESC1002164, 2-fluoro-N-(2-methoxyethyl)-N-[3-[[1-(2-methoxyethyl)imidazol-4-yl]methyl-methylamino]phenyl]benzamide] | 5.093 | > 20 | 2 |  |  |  | 77.951 |  |  |  |  |  | 
7 | CC(C)CN(C(=O)c1ccccc1F)c1cccc(N(C)Cc2cn(C)cn2)c1 [ESC1002200] | 5.136 | 9.12 | 67 | 1 | 96 | 0 | 79.220 |  |  |  |  |  | 
8 | COCCn1cnc(CN(C)c2cccc(NC(=O)c3ccccc3F)c2)c1 [ESC1002163] | 4.975 | > 20 | 0 |  |  |  | 78.775 |  |  |  |  |  | 
9 | CC(C)CN(C(=O)c1ccccc1F)c1ccc2c(c1)N(Cc1cnc[nH]1)CCC2 [ESC1002236, 2-fluoro-N-[1-(1H-imidazol-5-ylmethyl)-3,4-dihydro-2H-quinolin-7-yl]-N-isobutyl-benzamide] | 3.94 | > 20 | 30 |  |  |  | 82.69 |  |  |  |  |  | 
10 | CC(C)CN(C(=O)c1ccccc1F)c1cccc(N(C)Cc2ccn[nH]2)c1 [ESC1002205] |  |  | 96 | 1.1 | 97 | 0 |  | 5.840 | 95.933 |  |  |  | 
11 | COc1ccc(-c2ccccc2[C@@H]2CCCN2C(=O)c2sccc2C)cc1 (single isomer, unassigned) [ESC1002332] | 3.52 | 0.166 | 99 | 1 | 100 | 0 | 87.68 |  |  |  |  |  | 
12 | CC(C)CN(C(=O)Cc1ccccc1)c1cccc(N(C)Cc2cnc[nH]2)c1 [ESC1002167, N-[3-[1H-imidazol-5-ylmethyl(methyl)amino]phenyl]-N-isobutyl-2-phenyl-acetamide] | 4.492 | 12.6 | 62 | 1 | 100 | 0 | 79.269 |  |  |  |  |  | 
13 | Cc1ccsc1C(=O)N1CCC[C@H]1c1ccccc1-c1ccc(C#N)cc1 [ESC1002316] | 3.69 | 0.275 | 101 | 0.93 | 100 | 0 | 80.39 |  |  |  |  |  | 
14 | CCc1ccc(CN(C)c2cccc(N(CC(C)C)C(=O)c3ccccc3F)c2)cn1 [ESC1002213] | 8.010 | > 20 | 15 |  |  |  | 81.860 |  |  |  |  |  | 
15 | CC(C)CN(C(=O)CCc1ccccc1)c1cccc(N(C)Cc2cnc[nH]2)c1 [ESC1002168, N-[3-[1H-imidazol-5-ylmethyl(methyl)amino]phenyl]-N-isobutyl-3-phenyl-propanamide] | 4.285 | 8.91 | 72 | 1.1 | 100 | 0 | 82.648 |  |  |  |  |  | 
16 | COc1ccc(-c2ccccc2[C@H]2CCCN2C(=O)c2ccccc2F)cn1 (stereo in doubt) [ESC1002119, (2-fluorophenyl)-[2-[2-(6-methoxy-3-pyridyl)phenyl]pyrrolidin-1-yl]methanone] | 4.780 | 4.17 | 64 | 1.3 | 57 | 0 | 79.180 |  |  |  |  |  | 
17 | CC(C)CN(C(=O)c1ccccc1F)c1cccc(N(C)Cc2ncc[nH]2)c1 [ESC1002201] | 5.842 | > 20 | 41 |  |  |  | 80.481 |  |  |  |  |  | 
18 | Cc1ncc(CN(C)c2cccc(N(CC(C)C)C(=O)c3ccccc3F)c2)[nH]1 [ESC1002203] |  | 0.525 | 97 | 1.1 | 98 | 0 |  |  |  | 6.638 | only slightly reduced ABAD inhibition levels | approximately 3 fold | 87.491
19 | Cc1ccsc1C(=O)N1CCC[C@H]1c1ccccc1-c1ccc(OC(F)(F)F)cc1 [ESC1002315] | 5.91 | 1.15 | 95 | 1.1 | 97 | 0 | 84.77 |  |  |  |  |  | 
